How the values were obtained:
Type in all cases: cell-based, human
A549 cells [1] = assay: Cell cycle analysis by flow cytometer (PI staining); settings: for G0/G1 (%) / G2/M (%) / S (%) / Sub G1 (%): 24 hr, Table 7 (head prints Anti-Dox-A549; b90: A549 cells)
Description: (§1) The results of Example 2 in cell viability hinted the effects of HCD, PG, and Dox on arresting cell cycle. In this example, the phase of cell cycle of A549 cells and Anti-Dox-A549 cells after the treatment listed in Table 1 was determined by flow cytometer. Briefly, 7×10^4 cells per well were to inoculated in 12-wells plate and incubated overnight at 37° C., 5% CO2. Then, cells were treated according to the treatment listed in Table 1 by indicated time period. After treatment, cells were harvested by trypsin and fixed with 70% ethanol at −20° C. for at least 3 hr. The cells were washed in cold PBS twice and then incubated with 1 ml (v/v) staining solution (20 μg/m1 propidium iodide (PI), 0.1% Triton X-100, 0.2 mg/ml Rnase) at 37° C. for 30 minutes. Lastly, cells were analyzed by flow cytometer (Cytomics™ FC500, Backman, Fullerton, Calif., USA). Data from 10,000 cells were collected for each experimental group.

Anti-Dox-A549 cells [2] = assay: as above; settings: for G0/G1 (%) / G2/M (%) / S (%) / Sub G1 (%): 24 hr, Anti-Dox-A549 (Table 6)
Description: as §1

A549 cells [3] = assay: MTT assay, cell viability; settings: Homo sapiens, 24 hr treatment
Description: (§2) A549 (lung cancer cell line, non-resistance) and Anti-Dox-A549 (lung cancer cell line with resistance to Doxorubicin) were maintained in DMEM supplemented with 10% fetal bovine serum (FBS, Gibco), pH 7.4, 37° C. and with continuous circulation of 5% CO2. The medium was changed every 2 days and the cells were trypsinized with trypsin/EDTA when reaching 80%-90% confluence.
(§3) A549 and Anti-Dox-A549 were treated by the following treatment (Table 1) for 24 or 48 hr for examining the effects of HCD, PG, and Dox on their viability.
(§4) Dox1is referred as Dox of 1 μM; Dox2.5 is referred as Dox of 2.5 μM; Dox5 is referred as Dox of 5 μM; Dox10 is referred as Dox of 10 μM; Dox100 is referred as Dox of 100 μM. HCD2.5 is referred as HCD of 2.5 μM; HCD10 is referred as HCD of 10 μM; HCD25 is referred as HCD of 25 μM; HCD50 is referred as HCD of 50 μM. PG2.5 is referred as PG of 2.5 μM; PG5 is referred as PG of 5 μM; PG10 is referred as PG of 10 μM; PG20 is referred as PG of 20 μM.
(§5) In this example, the effects of HCD, PG, and Dox on the viability of A549 and anti-Dox-A549 were examined. The MTT assay was employed for this purpose. The MTT (3-(4-,5-dimethylthiazol-2-yl)-2,5-diphenyltetrazolium bromide) assay is a common colorimetric method in the field for cell viability analysis. MTT (yellow tetrazolium salt) is reduced to a purple formazan by living cells and detection to the purple formazan can be calculated as the cell viability.
(§6) Briefly, cells (A549 or Anti-Dox-A549) were seeded in 96-well plate (7×10^3 cell per well) and incubated overnight (37° C., 5% CO2).

Anti-Dox-A549 cells [4] = assay: MTT assay, cell viability; settings: Homo sapiens, 24 hr treatment
Description: as §2, §3, §4, §5, §6

**Q.** Which results are given for `COc1cccc2c1C(=O)c1c(O)c3c(c(O)c1C2=O)C[C@@](O)(C(=O)CO)C[C@@H]3O[C@H]1C[C@H](N)[C@H](O)[C@H](C)O1` [Dox, Doxorubicin]?
**A.** cell cycle effect (A549 cells [1]; A549 cells, Dox 5, 10, or 20 μM (Table 7)): increased at Sub G1 phase and showed cell arrest at sub G1 phase; G0/G1 (%) (A549 cells [1]; Dox 5 μM): 50.3 ± 0.9 %; G2/M (%) (A549 cells [1]; Dox 5 μM): 15.2 ± 1.6 %; S (%) (A549 cells [1]; Dox 5 μM): 23.5 ± 0.7 %; Sub G1 (%) (A549 cells [1]; Dox 5 μM): 5.8 ± 0.5 %; G0/G1 (%) (A549 cells [1]; Dox 10 μM): 50.2 ± 1.4 %; G2/M (%) (A549 cells [1]; Dox 10 μM): 17 ± 0.3 %; S (%) (A549 cells [1]; Dox 10 μM): 20.3 ± 0.9 %; Sub G1 (%) (A549 cells [1]; Dox 10 μM): 7.4 ± 2.3 %; G0/G1 (%) (A549 cells [1]; Dox 20 μM): 37.3 ± 2.1 %; G2/M (%) (A549 cells [1]; Dox 20 μM): 21.5 ± 1.6%; S (%) (A549 cells [1]; Dox 20 μM): 23.5 ± 0.7 %; Sub G1 (%) (A549 cells [1]; Dox 20 μM): 9.0 ± 0.8 %; cell cycle effect (Anti-Dox-A549 cells [2]; Anti-Dox-A549 cells, Dox 5, 10, or 20 μM (Table 6)): increased at Sub G1 phase and showed cell arrest at S phase; G0/G1 (%) (Anti-Dox-A549 cells [2]; Dox 5 μM): 54.7 ± 1.3 %; G2/M (%) (Anti-Dox-A549 cells [2]; Dox 5 μM): 9.9 ± 0.7 %; S (%) (Anti-Dox-A549 cells [2]; Dox 5 μM): 24.1 ± 0.5 %; Sub G1 (%) (Anti-Dox-A549 cells [2]; Dox 5 μM): 6.4 ± 0.6 %; G0/G1 (%) (Anti-Dox-A549 cells [2]; Dox 10 μM): 62.8 ± 0.6%; G2/M (%) (Anti-Dox-A549 cells [2]; Dox 10 μM): 9.4 ± 0.9 %; S (%) (Anti-Dox-A549 cells [2]; Dox 10 μM): 19.9 ± 0.1 %; Sub G1 (%) (Anti-Dox-A549 cells [2]; Dox 10 μM): 4.6 ± 0.3 %; G0/G1 (%) (Anti-Dox-A549 cells [2]; Dox 20 μM): 58.1 ± 3.4%; G2/M (%) (Anti-Dox-A549 cells [2]; Dox 20 μM): 12.4 ± 1.5%; S (%) (Anti-Dox-A549 cells [2]; Dox 20 μM): 18.7 ± 0.4 %; Sub G1 (%) (Anti-Dox-A549 cells [2]; Dox 20 μM): 6.2 ± 0.6 %; IC50 (A549 cells [3]): 5 to 10 µM; IC50 (Anti-Dox-A549 cells [4]): ~100 µM

Source: patent publication US20150329512A1, “METHOD AND PHARMACEUTICAL COMPOSITION FOR TREATING LUNG CANCER” (National Dong Hua University, priority 2014, published 2015)
